{
  "source": "patent US20100069343A1",
  "about": "“Methods of predicting steroid responsiveness with Il-1RII” (priority 2008, published 2010)",
  "key": {"[1]": {"conditions": "compared to placebo; cited from earlier work"}, "IL-1RA, IL-1β": {"test_system": "IL-1RA, IL-1β", "conditions": "experimentally; cited from earlier work"}, "patients with AIED": {"test_system": "patients with AIED", "assay": "Prednisone treatment of AIED patients with sudden hearing decline, pre/post-treatment audiograms", "format": "in vivo, human", "conditions": "for AVG Improve: 60 mg prednisone daily 7 days then taper", "procedure": "FIG. 5A. 10 patients with presumptive AIED and sudden declines in hearing were enrolled, blood samples were taken and then the patients were treated with 60 mg prednisone/day×7 days and then tapered. Post-treatment audiograms were obtained between 7-14 days later. Improvement (Δ) was measured as the average of 500, 1, 2, 4 & 8 kHz. […] The patient that improved 13.3 dB represented a patient that returned to normal hearing thresholds. PBMC were isolated, divided and cultured for 16 hours with either 0 μg/ml or increasing concentrations of dexamethasone (8, 20, 40 or 80 μg/ml). Fold changes in levels of mIL-1RII by Q-RT-PCR after in vitro challenge with dexamethasone (expressed as fold change over baseline) predicted steroid responsiveness in AIED. In data on 7 subjects, the fold-increase was log-transformed in order to better meet the assumptions of a normal distribution with equal variance.\nProspectively Enrolled, Steroid Treated Subjects. Ten patients with AIED who had not undergone cochlear implantation were studied in a separate IRB approved protocol. […] The responders were defined as a 10 dB or greater average improvement at 250, 500, 1000, 2000, 4000 and 8000 Hz. […] Furthermore, SNHL of greater than 30 dB at one or more frequencies in both ears with evidence of active deterioration (elevated threshold) in at least one ear of 15 dB at one frequency (excluding 250 or 8 kHz as a sole indicator), or 10 dB at 2+ frequencies developing in >3 days but <90 days (Niparko et al. 2005, Yeom et al. 2003). If the hearing loss evolved in less than 3 days, prior similar hearing declines must have occurred or the patient must have a systemic autoimmune disorder AND the patient must meet the audiology criteria outlined above. All patients with retrocochlear (vestibular schwannoma or other internal auditory canal s) pathology), patients who received prednisone or other immunosuppressive therapy within 3 months, or patients with vestibular symptoms coinciding with periods of hearing fluctuation were all excluded from this study. All patients received a minimum of 60 mg of prednisone daily for 7 days with a variable taper thereafter.\n60% of patients studied by the AIED study group were steroid responsive (Niparko et al. 2005). In the present study, in vitro PBMC membrane-bound IL-IRII (mIL-1RII) mRNA expression in response to dexamethasone stimulation was compared to basal mIL-1RII expression in cultures of PBMCs collected prior to clinical steroid treatment. In addition, pre-treatment mIL-1RII expression was compared to post-treatment hearing recovery. Furthermore, pre- and post-treatment mIL-1RII expression were compared in a subset of clinical responders and non-responders. […] All responders returned to their prior baseline hearing thresholds at the end of the corticosteroid treatment. Non-responders were defined as less than 5 dB improvement at the same frequencies or further decline of pure tone thresholds. […] Of note, the dramatic difference in fold change of the corticosteroid responders is inversely proportional to basal mIL-1RII expression in PBMC (45 cycles, S.D. 0.0 in replicate samples) in an unstimulated condition, compared to corticosteroid non-responders (28.48 cycles, S.D.±3.34) (FIG. 5B, p<0.0001). In all patient samples, the unstimulated condition is the average of 2 independent cultured PBMC samples. Furthermore, post-steroid therapy mIL-1RII expression was determined in a subset of patients."}, "mIL-1RII": {"test_system": "mIL-1RII", "assay": "Pre- and post-steroid therapy mIL-1RII expression in PBMC by Q-RT-PCR", "format": "in vivo, human", "conditions": "subset", "procedure": "FIG. 5B. Pre- and post-treatment mIL-1RII levels in a subset of clinical responders and non-responders. Responders have essentially zero basal mIL-1RII expression, compared with non-responders that have substantially higher basal levels.\nQ-RT-PCR. Quantitative Real Time RT-PCR (Q-RT-PCR) was performed on PBMC from patients using TaqMan chemistry. The relative abundance of IL1R2 mRNA for 2 membrane bound (mIL-1RII) and the soluble (sIL-1RII) coding regions associated with the 2 Affymetrix probes sets 211372 (sIL-1RII) and 205403 (mIL-1RID compared to β-actin was determined using the Eurogentec RTqPCR mastermix (Eurogentec, Belgium) and ABI PRISM 7700 Sequence Detection System. Membrane bound IL-1RII, as reflected by Affymetrix probe set 205403 was detected by primers nt 1239-1258, 1295-1314, and taqman probe 1271-1278, whereas the shorter soluble form (sIL-1RII) reflected by the Affymetrix probe 211372 and primers nt 790-830-849, and taqman probe 820-827. […] Data was analyzed using Sequence Detection System software version 1.9.1. Results were expressed as Ct (Threshold cycle) values, which is inversely proportional to the starting template copy number. Relative abundance of IL1R2 in […] cells was calculated compared to untreated control samples using delta delta Ct method (User Bulletin #2, Applied Biosystems Inc). […]"}, "TNF-α": {"test_system": "TNF-α", "conditions": "animal studies, inner ear; cited from earlier work"}},
  "note": "Several values for one entry are separate records, joined by “and”; a condition that tells them apart may be missing. Identical values can stand only once.",
  "data": [
    {"compound": "CN(Cc1cnc2nc(N)nc(N)c2n1)c1ccc(C(=O)N[C@@H](CCC(=O)O)C(=O)O)cc1", "note": "[methotrexate]", "values": [
      {"measurement": "maintenance of hearing", "setting": "[1]", "value": "could not maintain hearing"},
      {"measurement": "IL-1RA release", "setting": "IL-1RA, IL-1β", "value": "stimulates IL-1RA release"},
      {"measurement": "IL-1β synthesis", "setting": "IL-1RA, IL-1β", "value": "inhibits IL-1β synthesis"}
    ]},
    {"compound": "C[C@]12C=CC(=O)C=C1CC[C@@H]1[C@@H]2C(=O)C[C@@]2(C)[C@H]1CC[C@]2(O)C(=O)CO", "note": "[prednisone]", "values": [
      {"measurement": "hearing outcome of responders", "setting": "patients with AIED; Responders (R), post-treatment audiograms 7-14 days later", "value": "returned to prior baseline hearing"},
      {"measurement": "AVG Improve", "setting": "patients with AIED; patient 39WM (R3)", "value": "13.3 dB and 13 dB"},
      {"measurement": "AVG Improve", "setting": "patients with AIED; patient 42 (NR2)", "value": 0, "unit": "dB"},
      {"measurement": "AVG Improve", "setting": "patients with AIED; patient 45WM (NR 5), (NS)", "value": 1, "unit": "dB"},
      {"measurement": "AVG Improve", "setting": "patients with AIED; patient 54 (R2)", "value": 33, "unit": "dB"},
      {"measurement": "AVG Improve", "setting": "patients with AIED; patient 56 (R1)", "value": 38, "unit": "dB"},
      {"measurement": "AVG Improve", "setting": "patients with AIED; patient 56WM (NR1)", "value": 0, "unit": "dB"},
      {"measurement": "AVG Improve", "setting": "patients with AIED; patient 57 (NR4)", "value": 0, "unit": "dB"},
      {"measurement": "AVG Improve", "setting": "patients with AIED; patient 60WF (NR7), (NS)", "value": 4, "unit": "dB"},
      {"measurement": "AVG Improve", "setting": "patients with AIED; patient 61HF (NR3)", "value": 0, "unit": "dB"},
      {"measurement": "AVG Improve", "setting": "patients with AIED; patient 62 (NR6)", "value": 0, "unit": "dB"},
      {"measurement": "mIL-1RII expression detected post-treatment", "setting": "mIL-1RII; clinical non-responders, pre-treatment 30 cycles", "value": 27, "unit": "cycles"},
      {"measurement": "mIL-1RII expression detected post-treatment", "setting": "mIL-1RII; clinical responders, pre-treatment no expression at 45 cycles", "value": 30, "unit": "cycles"}
    ]},
    {"compound": "Etanercept", "values": [
      {"measurement": "TNF-α release after administration of antigen", "setting": "TNF-α", "value": "can be reversed"}
    ]}
  ]
}
